# In PubChem BioAssay AID2060327 (Molecular Pharmacology Branch, DTP, NCI, 2025):
# Tested on: PC-3 multi-cell spheroids, viability
# Assay: Anticancer human tumor PC-3 cell line growth inhibition [IpAb];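 also: spheroids exposed to compounds for 7 days before readout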;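 as to viability, T/C: 100% = DMSO vehicle control wells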
# Settings: for IC50: curve of first compound; for viability, T/C: stronger effect = lower value
# Procedure, shortened: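 Combinations with ipatasertib or abemaciclib were tested on tumour spheroids holding HUVEC (25%) and MSC (15%) alongside 60% malignant cells. Top concentration was at or near clinical Cmax (10 microM if undefined), descending in half-log steps.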
# [1] = second compound 0.1 µM, first compound 0.0316 µM
# [2] = second compound 0.1 µM, first compound 0.1 µM
# [3] = second compound 0.1 µM, first compound 0.316 µM
# [4] = second compound 0.1 µM, first compound 1 µM
# [5] = second compound 0.1 µM, first compound 3.16 µM
# [6] = second compound 0.1 µM, first compound 10 µM
# [7] = second compound 0.316 µM, first compound 0.0316 µM
# [8] = second compound 0.316 µM, first compound 0.1 µM
# [9] = second compound 0.316 µM, first compound 0.316 µM
# [10] = second compound 0.316 µM, first compound 1 µM
# [11] = second compound 0.316 µM, first compound 3.16 µM
# [12] = second compound 0.316 µM, first compound 10 µM
# [13] = second compound 1 µM, first compound 0.0316 µM
# [14] = second compound 1 µM, first compound 0.1 µM
# [15] = second compound 1 µM, first compound 0.316 µM
# [16] = second compound 1 µM, first compound 1 µM
# [17] = second compound 1 µM, first compound 3.16 µM
# [18] = second compound 1 µM, first compound 10 µM
# [19] = second compound 3.16 µM, first compound 0.0316 µM
# [20] = second compound 3.16 µM, first compound 0.1 µM
# [21] = second compound 3.16 µM, first compound 0.316 µM
# [22] = second compound 3.16 µM, first compound 1 µM
# [23] = second compound 3.16 µM, first compound 3.16 µM
# [24] = second compound 3.16 µM, first compound 10 µM
# [25] = second compound 10 µM, first compound 0.0316 µM
# [26] = second compound 10 µM, first compound 0.1 µM
# [27] = second compound 10 µM, first compound 0.316 µM
# [28] = second compound 10 µM, first compound 1 µM
# [29] = second compound 10 µM, first compound 3.16 µM
# [30] = second compound 10 µM, first compound 10 µM
SMILES,IC50 (second compound 0.1 µM) [nM],IC50 (second compound 0.316 µM) [nM],IC50 (second compound 1 µM) [nM],IC50 (second compound 3.16 µM) [nM],IC50 (second compound 10 µM) [nM],"viability, T/C [1] [%]","viability, T/C [2] [%]","viability, T/C [3] [%]","viability, T/C [4] [%]","viability, T/C [5] [%]","viability, T/C [6] [%]","viability, T/C [7] [%]","viability, T/C [8] [%]","viability, T/C [9] [%]","viability, T/C [10] [%]","viability, T/C [11] [%]","viability, T/C [12] [%]","viability, T/C [13] [%]","viability, T/C [14] [%]","viability, T/C [15] [%]",other results
CCCS(=O)(=O)Nc1ccc(F)c(C(=O)c2c[nH]c3ncc(-c4ccc(Cl)cc4)cc23)c1F + CC(C)NCC(C(=O)N1CCN(c2ncnc3c2C(C)CC3O)CC1)c1ccc(Cl)cc1,9890,< 31.6,< 31.6,< 31.6,< 31.6,81.9,87.5,95.2,94.1,83.8,49.3,45.2,43.8,46.4,52.7,50.3,27,25,22.6,27,"viability, T/C [16]: 28.4%; viability, T/C [17]: 26.3%; viability, T/C [18]: 15.1%; viability, T/C [19]: 13.6%; viability, T/C [20]: 15.6%; viability, T/C [21]: 16.8%; viability, T/C [22]: 17.2%; viability, T/C [23]: 14.5%; viability, T/C [24]: 10.5%; viability, T/C [25]: 12.8%; viability, T/C [26]: 13%; viability, T/C [27]: 15%; viability, T/C [28]: 14.9%; viability, T/C [29]: 12.6%; viability, T/C [30]: 7.8%"
Cn1ncc(Cl)c1-c1cc(C(=O)NC(CN)Cc2cccc(F)c2)sc1Cl (stereo not given) + CC(C)NCC(C(=O)N1CCN(c2ncnc3c2C(C)CC3O)CC1)c1ccc(Cl)cc1,81.1,< 31.6,< 31.6,< 31.6,< 31.6,59.9,48.8,34.3,19.8,16.9,0.15,35.7,40.3,29.2,17.7,14.1,0.17,24.3,24.5,19.9,"viability, T/C [16]: 16.4%; viability, T/C [17]: 15.8%; viability, T/C [18]: 0.14%; viability, T/C [19]: 15.2%; viability, T/C [20]: 15.8%; viability, T/C [21]: 15.5%; viability, T/C [22]: 16%; viability, T/C [23]: 15.3%; viability, T/C [24]: 0.26%; viability, T/C [25]: 13.6%; viability, T/C [26]: 14.1%; viability, T/C [27]: 13.6%; viability, T/C [28]: 14.6%; viability, T/C [29]: 13.9%; viability, T/C [30]: 0.16%"
